≈ marks a conversion by molar mass, not a printed value. Read-outs that look alike come from different tables or passages of the source.
Key:
S. aureus [1] = assay: MIC testing by broth microdilution, clinical isolates (Example 4); type: cell-based; details: Staphylococcus aureus
Procedure: (§1) The Gram-positive organisms tested were S. epidermidis, methicillin resistant S. epidermidis (MRSE), S. aureus, methicillin resistant S. aureus (MRSA), E. faecalis and vancomycin resistant E. faecalis, the Gram-negative organisms tested were P. aeruginosa, E. coli and K. pneumoniae .
(§2) For MIC testing, all isolates were tested against 5-FU by broth microdilution following CLSI methodology (M7-A7).

K. pneumoniae = assay: as above; type: cell-based; details: Klebsiella pneumoniae, N=104
Procedure: as §1, §2

E. coli = assay: as above; type: cell-based; details: Escherichia coli, N=102
Procedure: as §1, §2

E. faecalis = assay: as above; type: cell-based
Procedure: as §1, §2

S. epidermidis [2] = assay: as above; type: cell-based; details: Staphylococcus epidermidis
Procedure: as §1, §2

P. aeruginosa = assay: as above; type: cell-based; details: Pseudomonas aeruginosa, N=100
Procedure: as §1, §2

S. aureus ATCC 25923 = assay: MIC and MBC on ATCC control strains (Example 10); type: cell-based
Source text: (§3) The Gram-positive organisms tested were S. epidermidis ATCC 12228, S. aureus ATCC 25923, and E. faecalis ATCC 29212. The Gram-negative strains tested were P. aeruginosa ATCC 27853, K. pneumonia ATCC 700603 and E. coli ATCC 25922.

[3] = system: S. epidermidis ATCC 12228; assay: MIC and MBC on ATCC control strains (Example 10); type: cell-based
Source text: as §3

P. aeruginosa ATCC 27853 = assay: MIC and MBC on ATCC control strains (Example 10); type: cell-based
Source text: as §3

E. faecalis ATCC 29212 = assay: MIC and MBC on ATCC control strains (Example 10); type: cell-based
Source text: as §3

K. pneumonia ATCC 700603 = assay: MIC and MBC on ATCC control strains (Example 10); type: cell-based, K. pneumoniae
Source text: as §3

S. aureus [4] = assay: Multi-organism zone-of-inhibition screening (Example 15); type: cell-based; details: 24 hr, one sample per plate, antibiotic disks 6 mm (Gentamicin 10 μg, penicillin 10 units)
Procedure: (§4) The 5-FU CVC was compared with the commercially available Arrow CVC. Gentamicin (10 μg) or penicillin (10 units) disks were used as positive controls and CVC was used as the negative control. The samples were challenged with 3 species of Gram-positive bacteria, 4 species of Gram-negative bacteria and 1 type of yeast. The organisms used to challenge the samples were the following ATCC strains: S. aureus, Methicillin Resistant Staphylococcus aureus (MRSA), S. epidermidis, K. pneumoniae, and Vancomycin Resistant Pediococcus (VRP), E. coli, P. aeruginosa and C. albicans.
(§5) Organisms were inoculated into 2 mL of liquid agar, which was poured on top of solidified agar. One plate was made per organism. Test articles were inserted into the agar when the plates were solidified and dry. ZOI results were recorded at 24 hr. […] Each plate also contained one negative and one positive control sample and 1 Arrow CVC sample.

[5] = system: Vancomycin Resistant Pediococcus (VRP); assay: as above; type: cell-based; details: 24 hr, one sample per plate, antibiotic disks 6 mm (Gentamicin 10 μg, penicillin 10 units)
Procedure: as §4, §5

S. epidermidis [6] = assay: as above; type: cell-based; details: 24 hr, one sample per plate, antibiotic disks 6 mm (Gentamicin 10 μg, penicillin 10 units)
Procedure: as §4, §5

C. albicans = assay: as above; type: cell-based; details: 24 hr, one sample per plate, antibiotic disks 6 mm (Gentamicin 10 μg, penicillin 10 units)
Procedure: as §4
Organisms were inoculated into 2 mL of liquid agar, which was poured on top of solidified agar. One plate was made per organism. Test articles were inserted into the agar when the plates were solidified and dry. ZOI results were recorded at 24 hr. Three 0.5-cm sections of the 5-FU CVC were tested on each plate. Each plate also contained one negative and one positive control sample and 1 Arrow CVC sample.

## C[C@H]1COc2c(N3CCN(C)CC3)c(F)cc3c(=O)c(C(=O)O)cn1c23 [Levofloxacin]
S. aureus [1]; Oxacillin-R, N=40
  MIC90: 32 µg/mL (≈ 88.6 µM)
S. aureus [1]; Oxacillin-S, N=61
  MIC90: 16 µg/mL (≈ 44.3 µM)
S. aureus [1]; all, N=101
  MIC90: 32 µg/mL (≈ 88.6 µM)
K. pneumoniae
  MIC90: 0.12 µg/mL (≈ 0.332 µM)
E. coli
  MIC90: 16 µg/mL (≈ 44.3 µM)
E. faecalis; Enterococcus faecalis, all, N=101, read-out: MIC90
  MIC90: 64 µg/mL (≈ 177 µM)
E. faecalis; Vancomycin-R, N=21
  MIC90: 64 µg/mL (≈ 177 µM)
E. faecalis; Vancomycin-S, N=80
  MIC90: 64 µg/mL (≈ 177 µM)
S. epidermidis [2]; Oxacillin-R, N=78
  MIC90: > 128 µg/mL
S. epidermidis [2]; Oxacillin-S, N=22
  MIC90: 128 µg/mL (≈ 354 µM)
S. epidermidis [2]; all, N=100
  MIC90: > 128 µg/mL
P. aeruginosa
  MIC90: 32 µg/mL (≈ 88.6 µM)

## O=c1[nH]c(=O)n([C@H]2C[C@H](O)[C@@H](CO)O2)cc1F [Flox, floxuridine]
S. aureus ATCC 25923
  MBC: 0.14 µg/mL (≈ 0.569 µM)
  MIC: <0.05 µg/mL
[3]
  MBC: <0.05 µg/mL
  MIC: <0.05 µg/mL
P. aeruginosa ATCC 27853
  MBC: >100 µg/mL
  MIC: >100 µg/mL
E. faecalis ATCC 29212
  MBC: 11.11 µg/mL (≈ 45.1 µM)
  MIC: 3.7 µg/mL (≈ 15 µM)
K. pneumonia ATCC 700603
  MBC: 3.7 µg/mL (≈ 15 µM)
  MIC: 1.23 µg/mL (≈ 5 µM)

## Penicillin
S. aureus [4]
  ZOI: 41.3 mm
[5]
  ZOI: 0 mm
S. epidermidis [6]
  ZOI: 0 mm
C. albicans
  ZOI: 0 mm

From patent US20110150961A1, “ANTI-INFECTIVE CATHETERS” (priority 2008, published 2011)
